In one test the target is mSERT (Mus musculus, UniProt Q60857). As to the kind of experiment: [3H]5-HT uptake inhibition in transiently transfected mSERT-HEK cells. In kind it is cell-based.
A further test has as its target mDAT (Mus musculus, UniProt Q61327). As to the kind of experiment: [3H]MPP+ uptake inhibition in transiently transfected mDAT-HEK cells. The test is classed as cell-based.
Another test addresses mNET (Mus musculus, UniProt O55192). The test is described as follows: [3H]MPP+ uptake inhibition in transiently transfected mNET-HEK cells. The test is classed as cell-based.
The target of another test is T1, hPMAT (Homo sapiens, UniProt Q7RTT9).
T1 sequence (Q7RTT9 1-530): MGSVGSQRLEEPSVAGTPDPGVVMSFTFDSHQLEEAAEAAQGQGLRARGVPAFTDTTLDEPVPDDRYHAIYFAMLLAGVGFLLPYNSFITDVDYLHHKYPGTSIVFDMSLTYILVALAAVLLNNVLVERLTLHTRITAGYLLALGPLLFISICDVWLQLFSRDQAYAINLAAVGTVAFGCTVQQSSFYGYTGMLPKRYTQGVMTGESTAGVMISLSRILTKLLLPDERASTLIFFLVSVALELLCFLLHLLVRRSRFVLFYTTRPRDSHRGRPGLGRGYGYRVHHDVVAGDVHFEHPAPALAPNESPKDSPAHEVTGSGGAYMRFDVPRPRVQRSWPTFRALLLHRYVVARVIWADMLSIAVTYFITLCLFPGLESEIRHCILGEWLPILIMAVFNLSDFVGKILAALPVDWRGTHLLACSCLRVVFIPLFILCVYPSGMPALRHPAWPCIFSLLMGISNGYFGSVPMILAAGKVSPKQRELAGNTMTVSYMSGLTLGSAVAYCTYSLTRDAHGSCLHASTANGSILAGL
The test is described as follows: [3H]MPP+ uptake competition in stable hPMAT-HEK cells. In kind it is cell-based.

For another test, the target named is T2, hOCT2 (Homo sapiens, UniProt O15244).
T2 sequence (O15244 1-555): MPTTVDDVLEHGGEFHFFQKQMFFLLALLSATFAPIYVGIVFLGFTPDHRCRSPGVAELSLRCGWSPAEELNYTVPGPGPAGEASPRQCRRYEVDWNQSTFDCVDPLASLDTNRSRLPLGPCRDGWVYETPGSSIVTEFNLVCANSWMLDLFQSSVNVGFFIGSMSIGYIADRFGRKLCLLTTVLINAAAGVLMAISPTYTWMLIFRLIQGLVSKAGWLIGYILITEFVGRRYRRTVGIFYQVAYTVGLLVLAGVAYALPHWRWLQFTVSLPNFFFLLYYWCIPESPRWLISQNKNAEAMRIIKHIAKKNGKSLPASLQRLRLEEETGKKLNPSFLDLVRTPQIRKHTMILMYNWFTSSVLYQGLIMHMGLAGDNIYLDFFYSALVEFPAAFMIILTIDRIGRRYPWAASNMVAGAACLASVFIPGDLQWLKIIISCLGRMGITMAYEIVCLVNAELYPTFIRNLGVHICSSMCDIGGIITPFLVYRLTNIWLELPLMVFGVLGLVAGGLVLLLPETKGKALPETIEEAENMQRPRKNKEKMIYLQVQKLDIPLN
As to the kind of experiment: [3H]MPP+ uptake competition in stable hOCT2-HEK cells. In kind it is cell-based. The note with it: 10 min room temperature.

For the next test, the target named is T3, hOCT3 (Homo sapiens, UniProt O75751).
T3 sequence (O75751 1-556): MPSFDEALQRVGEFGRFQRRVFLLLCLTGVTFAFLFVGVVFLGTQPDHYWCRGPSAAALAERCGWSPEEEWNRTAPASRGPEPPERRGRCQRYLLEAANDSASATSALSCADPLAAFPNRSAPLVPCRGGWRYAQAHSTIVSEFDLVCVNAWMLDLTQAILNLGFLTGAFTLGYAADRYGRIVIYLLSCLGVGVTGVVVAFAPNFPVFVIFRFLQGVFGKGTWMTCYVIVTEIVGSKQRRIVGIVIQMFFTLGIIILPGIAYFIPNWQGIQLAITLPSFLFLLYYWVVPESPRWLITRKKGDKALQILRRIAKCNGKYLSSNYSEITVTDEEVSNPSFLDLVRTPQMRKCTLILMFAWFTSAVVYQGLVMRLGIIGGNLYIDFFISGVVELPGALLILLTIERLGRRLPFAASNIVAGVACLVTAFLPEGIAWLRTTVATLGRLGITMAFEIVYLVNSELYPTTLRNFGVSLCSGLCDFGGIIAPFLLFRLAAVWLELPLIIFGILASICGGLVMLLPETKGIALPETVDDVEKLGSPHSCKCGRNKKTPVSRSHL
As to the kind of experiment: [3H]MPP+ uptake competition in stable hOCT3-HEK cells. In kind it is cell-based. The note with it: 10 min room temperature.

The next test has as its target DAT (Mus musculus, UniProt Q61327). As to the kind of experiment: [3H]WIN 35428 binding displacement in mouse striatum homogenate.
The mark [1] stands for this setting: read-out: DAT [3H]WIN 35428 IC50, mouse striatum homogenate, 4 nM [3H]WIN 35428, 60 min.
Where [2] appears, read: read-out: hPMAT-HEK IC50, 10 nM [3H]MPP+ uptake, 10 min room temperature.
Where [3] appears, read: read-out: hOCT2-HEK IC50, 10 nM [3H]MPP+ uptake.
Where [4] appears, read: read-out: hOCT3-HEK IC50, 10 nM [3H]MPP+ uptake.

Each structure is given as a SMILES string. pIC50: −log10 of the molar value. Values joined by “and” are separate entries in the source; they are usually repeats but may differ in a detail not shown here. Equal entries are not always repeated. Where two headings read alike, the source gives them in different places.

DAT, sequence (Q61327 whole entry): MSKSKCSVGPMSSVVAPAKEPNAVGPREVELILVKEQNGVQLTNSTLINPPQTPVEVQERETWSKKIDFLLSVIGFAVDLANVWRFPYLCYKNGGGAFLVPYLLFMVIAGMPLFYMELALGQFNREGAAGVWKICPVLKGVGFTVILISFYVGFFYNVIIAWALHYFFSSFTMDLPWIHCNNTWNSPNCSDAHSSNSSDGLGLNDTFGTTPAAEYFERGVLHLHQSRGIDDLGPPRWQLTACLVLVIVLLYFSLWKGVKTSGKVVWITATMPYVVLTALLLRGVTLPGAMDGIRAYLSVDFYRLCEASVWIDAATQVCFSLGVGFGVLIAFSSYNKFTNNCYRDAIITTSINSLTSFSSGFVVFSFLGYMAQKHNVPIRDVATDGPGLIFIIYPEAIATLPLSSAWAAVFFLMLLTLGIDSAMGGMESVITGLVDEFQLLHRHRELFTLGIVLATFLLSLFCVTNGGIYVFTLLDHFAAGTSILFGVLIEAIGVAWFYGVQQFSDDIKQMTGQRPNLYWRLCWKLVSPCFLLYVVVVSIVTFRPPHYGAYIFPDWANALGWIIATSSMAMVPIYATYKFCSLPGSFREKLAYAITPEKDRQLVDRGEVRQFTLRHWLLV
mDAT, sequence (Q61327 whole entry): as above
mSERT, sequence (Q60857 whole entry): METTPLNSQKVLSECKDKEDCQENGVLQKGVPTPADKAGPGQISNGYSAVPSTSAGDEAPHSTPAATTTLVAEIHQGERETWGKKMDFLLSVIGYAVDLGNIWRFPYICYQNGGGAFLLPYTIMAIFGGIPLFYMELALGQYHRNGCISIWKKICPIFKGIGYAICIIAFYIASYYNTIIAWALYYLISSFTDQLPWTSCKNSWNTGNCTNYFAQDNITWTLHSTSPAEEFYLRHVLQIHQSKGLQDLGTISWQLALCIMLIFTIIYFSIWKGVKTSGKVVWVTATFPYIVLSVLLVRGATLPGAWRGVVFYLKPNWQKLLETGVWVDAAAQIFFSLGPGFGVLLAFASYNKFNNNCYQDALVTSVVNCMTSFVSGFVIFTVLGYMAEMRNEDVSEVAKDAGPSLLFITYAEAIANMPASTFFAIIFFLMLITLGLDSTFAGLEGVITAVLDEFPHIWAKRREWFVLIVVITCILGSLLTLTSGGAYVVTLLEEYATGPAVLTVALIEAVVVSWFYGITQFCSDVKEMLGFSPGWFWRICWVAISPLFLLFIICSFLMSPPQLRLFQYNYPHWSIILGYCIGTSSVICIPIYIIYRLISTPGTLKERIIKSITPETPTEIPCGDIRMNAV
mNET, sequence (O55192 whole entry): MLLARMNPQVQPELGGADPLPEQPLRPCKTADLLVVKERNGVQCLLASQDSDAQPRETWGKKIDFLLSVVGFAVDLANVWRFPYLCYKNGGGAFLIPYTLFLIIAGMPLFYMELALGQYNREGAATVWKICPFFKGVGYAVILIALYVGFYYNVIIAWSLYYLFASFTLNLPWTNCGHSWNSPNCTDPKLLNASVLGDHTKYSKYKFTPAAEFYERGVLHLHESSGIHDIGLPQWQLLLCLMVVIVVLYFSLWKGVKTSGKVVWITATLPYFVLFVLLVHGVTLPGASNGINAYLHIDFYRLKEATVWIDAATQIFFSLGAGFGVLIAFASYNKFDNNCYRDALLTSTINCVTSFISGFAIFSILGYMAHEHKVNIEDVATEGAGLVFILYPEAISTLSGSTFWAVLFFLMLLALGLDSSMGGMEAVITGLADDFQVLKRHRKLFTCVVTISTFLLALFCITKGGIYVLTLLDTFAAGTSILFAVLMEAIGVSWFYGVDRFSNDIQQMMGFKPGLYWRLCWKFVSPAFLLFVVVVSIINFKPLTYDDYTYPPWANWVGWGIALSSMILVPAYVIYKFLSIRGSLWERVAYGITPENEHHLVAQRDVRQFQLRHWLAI

For `COC(=O)[C@H]1[C@@H](OC(=O)c2ccccc2)C[C@@H]2CC[C@H]1N2C` [Cocaine], the negative-log IC50 (pIC50) against mSERT (mSERT-HEK IC50, 100 nM [3H]5-HT uptake, 1 min) is 6.30 and 6.29; on mDAT (mDAT-HEK IC50, 20 nM [3H]MPP+ uptake, 3 min), 6.74; on mNET (mNET-HEK IC50, 20 nM [3H]MPP+ uptake, 3 min), 5.92 and 5.93.

As for `C[C@]12C[C@H](O)[C@H]3[C@@H](CCC4=CC(=O)CC[C@@]43C)[C@@H]1CC[C@@H]2C(=O)CO` [Corticosterone], the pIC50 on mSERT is 3.35; on hPMAT, 2.98; at hOCT2 (hOCT2-HEK IC50, 10 nM [3H]MPP+ uptake), 4.10; on hOCT3 (hOCT3-HEK IC50, 10 nM [3H]MPP+ uptake), 6.22 and 6.21; against mDAT, 3.44; against mNET, 3.08.

With `CCN1C(=Cc2ccc3ccccc3[n+]2CC)C=Cc2ccccc21` [Decynium 22, 1,1’-diethyl-2,2’-cyanine], the pIC50 at mSERT (read-out: mSERT-HEK IC50, 100 nM [3H]5-HT uptake, 1 min) is 5.10; at mSERT (read-out: mSERT-HEK IC50, 100 nM [3H]5-HT uptake, 1 min, listed as D22), 5.10; on DAT (setting [1]) it was 4.97; on hPMAT (setting [2]) it was 5.96; on hOCT2 (setting [3]) it was 5.00; at hOCT3 (setting [4]), 6.70. For the same compound, the pIC50 at mDAT (read-out: mDAT-HEK IC50, 20 nM [3H]MPP+ uptake, 3 min) was 4.89; on mNET (read-out: mNET-HEK IC50, 20 nM [3H]MPP+ uptake, 3 min), 4.46.

Consider `NCCc1ccc(O)c(O)c1` [Dopamine], for which, on DAT, the pIC50 is 4.00.

With `C[n+]1ccc(-c2ccccc2)cc1` [MPP^+, 1-methyl-4-phenylpyridinium], the pIC50 is 2.99 at hPMAT (setting [2]), 3.96 on hOCT2 (setting [3]) and 4.04 at hOCT3 (setting [4]).

Regarding `COC(=O)[C@H]1[C@@H](c2ccc(F)cc2)C[C@@H]2CC[C@H]1N2C` [WIN 35428], the pIC50 at DAT (setting [1]) is 7.22.

The term pIC50 denotes the negative decadic logarithm of the IC50, by convention in mol/L.

The record behind these values is paper PMC6440482 (European journal of pharmacology, 2018).
